Test results as given in patent US20250230193A1, “CYCLIC COMPOUND HAVING SELECTIVE KRAS INHIBITORY EFFECT ON HRAS AND NRAS” (CHUGAI SEIYAKU KABUSHIKI KAISHA, priority 2022, published 2025).

Tests used:
[1] = biological target: GDP-bound HRAS wild-type protein (Homo sapiens, UniProt P01112); experiment: Binding to HRAS by surface plasmon resonance (SPR), Single Cycle Kinetics; settings: SPR; KD ratio class
[2] = tested on: human lung cancer strain NCI-H441; experiment: cells; settings: NCI-H441, 96 h, read-out: NCI-H441 IC50 (nM)
[3] = biological target: GDP-bound NRAS wild-type protein (Homo sapiens, UniProt P01111); experiment: Binding to NRAS by surface plasmon resonance (SPR), Single Cycle Kinetics; settings: SPR; KD ratio class
GDP-bound NRAS wild-type protein, sequence (P01111 whole entry): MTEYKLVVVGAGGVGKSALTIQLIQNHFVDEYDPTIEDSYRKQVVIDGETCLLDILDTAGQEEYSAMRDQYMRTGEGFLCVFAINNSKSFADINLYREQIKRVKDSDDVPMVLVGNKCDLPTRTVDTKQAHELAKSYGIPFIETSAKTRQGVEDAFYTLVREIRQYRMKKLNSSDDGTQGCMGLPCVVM

GDP-bound HRAS wild-type protein, sequence (P01112 whole entry): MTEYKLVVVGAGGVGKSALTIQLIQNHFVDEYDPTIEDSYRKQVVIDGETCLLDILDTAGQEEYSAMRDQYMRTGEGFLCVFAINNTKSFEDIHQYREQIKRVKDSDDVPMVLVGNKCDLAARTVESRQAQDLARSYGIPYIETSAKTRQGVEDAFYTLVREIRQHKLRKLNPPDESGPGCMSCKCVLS

SMILES | HRAS/KRAS (ratio of KD value for GDP-bound HRAS wild-type protein to KD value for KRAS) [1] | IC50 [2] | NRAS/KRAS (ratio of KD value for GDP-bound NRAS wild-type protein to KD value for KRAS) [3]
CCO[C@@H]1C[C@H]2C(=O)NC3(CCC3)C(=O)N(C)[C@@H](C3CCCC3)C(=O)N(C)[C@H](C(=O)N(C)C)CC(=O)N(C)[C@@H](CC3CC3)C(=O)N[C@@H]([C@@H](C)CC)C(=O)N(C)CC(=O)N(C)[C@H]3C/C=C\CCN(C3=O)[C@@H](Cc3ccc(C)cc3)C(=O)N(C)CC(=O)N[C@@H](CCc3ccc(Cl)c(Cl)c3)C(=O)N2C1 [PP1485] | A (a compound having 10 or more and less than 20 is denoted as A) | 30.5 nM | A (a compound having 10 or more and less than 20 is denoted as A)
CC[C@H](C)[C@@H]1NC(=O)[C@H](CC2CC2)N(C)C(=O)C[C@@H](C(=O)N2CCOCC2)N(C)C(=O)[C@H](C2CCCC2)N(C)C(=O)C2(CCC2)NC(=O)[C@@H]2CCCN2C(=O)[C@H](CCc2ccc(C(F)(F)F)c(Cl)c2)NC(=O)CN(C)C(=O)[C@H](Cc2ccc(C(F)(F)F)cc2)N2C[C@H](C)CC[C@@H](C2=O)N(C)C(=O)CN(C)C1=O [PP1344] | B (a compound having 3 or more and less than 10 is denoted as B) | 16.7 nM | B (a compound having 3 or more and less than 10 is denoted as B)
CCO[C@@H]1C[C@H]2C(=O)NC3(CCC3)C(=O)N(C)[C@@H](C(CC)CC)C(=O)N(C)[C@H](C(=O)N(C)C)CC(=O)N(C)[C@@H](CC3CCCC3)C(=O)N[C@@H]([C@@H](C)CC)C(=O)N(C)CC(=O)N(C)[C@H]3C/C=C\CCN(C3=O)[C@@H](Cc3ccc(C(F)(F)F)cc3)C(=O)N(C)CC(=O)N[C@@H](CCc3ccc(Cl)c(Cl)c3)C(=O)N2C1 [PP1220] | A (a compound having 10 or more and less than 20 is denoted as A) | 22.2 nM | AA (a compound having 20 or more is denoted as AA)
CCO[C@@H]1C[C@H]2C(=O)NC3(CCCC3)C(=O)N(C)[C@@H](C3CCCC3)C(=O)N(C)[C@H](C(=O)N3CCOCC3)CC(=O)N(C)[C@@H](CC)C(=O)N[C@@H]([C@@H](C)CC)C(=O)N(C)CC(=O)N(C)[C@H]3CC[C@@H](C)CN(C3=O)[C@@H](Cc3ccc(C(F)(F)F)cc3)C(=O)N(C)CC(=O)N[C@@H](CCc3cc(F)c(C(F)(F)F)c(F)c3)C(=O)N2C1 [PP1371] | B (a compound having 3 or more and less than 10 is denoted as B) | 5.1 nM | A (a compound having 10 or more and less than 20 is denoted as A)
CCO[C@@H]1C[C@H]2C(=O)NC3(CC(C)(C)C3)C(=O)N(C)[C@@H](C3CCCC3)C(=O)N3CCC[C@@H]3CC(=O)N(C)[C@@H](CC)C(=O)N[C@@H]([C@@H](C)CC)C(=O)N(C)CC(=O)N(C)[C@H]3C/C=C\CCN(C3=O)[C@@H](Cc3ccc(C(F)(F)F)cc3)C(=O)N(C)CC(=O)N[C@@H](CCc3cc(F)c(C(F)(F)F)c(F)c3)C(=O)N2C1 [PP1606] | B (a compound having 3 or more and less than 10 is denoted as B) | 12.6 nM | B (a compound having 3 or more and less than 10 is denoted as B)
CCO[C@@H]1C[C@H]2C(=O)NC3(CCC3)C(=O)N(C)[C@@H](C3CCCC3)C(=O)N(C)[C@H](C(=O)N(C)C)CC(=O)N(C)[C@@H](CC3CC3)C(=O)N[C@@H]([C@@H](C)CC)C(=O)N(C)CC(=O)N(C)[C@H]3C/C=C\CCN(C3=O)[C@@H](Cc3ccc(F)cc3C)C(=O)N(C)CC(=O)N[C@@H](CCc3cc(F)c(Cl)c(F)c3)C(=O)N2C1 [PP1477] | B (a compound having 3 or more and less than 10 is denoted as B) | 309 nM | A (a compound having 10 or more and less than 20 is denoted as A)
CCO[C@@H]1C[C@H]2C(=O)NC(C)(C)C(=O)N(C)[C@@H](C3CCCC3)C(=O)N(C)[C@H](C(=O)N(C)C)CC(=O)N(C)[C@@H](CC)C(=O)N[C@@H]([C@@H](C)CC)C(=O)N(C)CC(=O)N(C)[C@H]3C/C=C\CCN(C3=O)[C@@H](Cc3ccc(C(F)(F)F)cc3)C(=O)N(C)CC(=O)N[C@@H](CCc3cc(F)c(C(F)(F)F)c(F)c3)C(=O)N2C1 [PP1280] | A (a compound having 10 or more and less than 20 is denoted as A) | 34.4 nM | A (a compound having 10 or more and less than 20 is denoted as A)
CCO[C@@H]1C[C@H]2C(=O)NC3(CCCC3)C(=O)N(C)[C@@H](C(CC)CC)C(=O)N(C)[C@H](C(=O)N3CCCC3)CC(=O)N(C)[C@@H](COC)C(=O)N[C@@H]([C@@H](C)CC)C(=O)N(C)CC(=O)N(C)[C@H]3C/C=C\CCN(C3=O)[C@@H](CC3CCC(F)(F)CC3)C(=O)N(C)CC(=O)N[C@@H](CCc3cc(F)c(C(F)(F)F)c(F)c3)C(=O)N2C1 [PP1441] | A (a compound having 10 or more and less than 20 is denoted as A) | 87.6 nM | A (a compound having 10 or more and less than 20 is denoted as A)
CCO[C@@H]1C[C@H]2C(=O)NC3(CCC3)C(=O)N(C)[C@@H](C(CC)CC)C(=O)N(C)[C@H](C(=O)N(C)C)CC(=O)N(C)[C@@H](CC3CC3)C(=O)N[C@@H]([C@@H](C)CC)C(=O)N(C)CC(=O)N(C)[C@H]3C/C=C\CCN(C3=O)[C@@H](Cc3ccc(C(F)(F)F)cc3)C(=O)N(C)CC(=O)N[C@@H](CCc3cc(F)c(Cl)c(F)c3)C(=O)N2C1 [PP1233] | A (a compound having 10 or more and less than 20 is denoted as A) | 34.7 nM | AA (a compound having 20 or more is denoted as AA)
CCO[C@@H]1C[C@H]2C(=O)NC3(CCC3)C(=O)N(C)[C@@H](C3CCCC3)C(=O)N(C)[C@H](C(=O)N3CCCC3)CC(=O)N(C)[C@@H](CC3CCCC3)C(=O)N[C@@H]([C@@H](C)CC)C(=O)N(C)CC(=O)N(C)[C@H]3C/C=C\CCN(C3=O)[C@@H](Cc3ccc(C)cc3)C(=O)N(C)CC(=O)N[C@@H](CCc3cc(F)c(C(F)(F)F)c(F)c3)C(=O)N2C1 [PP1412] | A (a compound having 10 or more and less than 20 is denoted as A) | 23 nM | A (a compound having 10 or more and less than 20 is denoted as A)
CCO[C@@H]1C[C@H]2C(=O)NC3(CCC3)C(=O)N(C)[C@@H](C3CCCC3)C(=O)N(C)[C@H](C)CC(=O)N(C)[C@@H](CC3CC3)C(=O)N[C@@H]([C@@H](C)CC)C(=O)N(C)CC(=O)N(C)[C@H]3C/C=C\CCN(C3=O)[C@@H](Cc3ccc(F)cc3C)C(=O)N(C)CC(=O)N[C@@H](CCc3cc(F)c(C(F)(F)F)c(F)c3)C(=O)N2C1 [PP1489] | B (a compound having 3 or more and less than 10 is denoted as B) | 118 nM | B (a compound having 3 or more and less than 10 is denoted as B)
CCO[C@@H]1C[C@H]2C(=O)NC3(CCC3)C(=O)N(C)[C@@H](C3CCCC3)C(=O)N(C)[C@H](C(=O)N3CCCCC3)CC(=O)N(C)[C@@H](CC3CC3)C(=O)N[C@@H]([C@@H](C)CC)C(=O)N(C)CC(=O)N(C)[C@H]3C/C=C\CCN(C3=O)[C@@H](Cc3ccc(C(F)(F)F)cc3)C(=O)N(C)CC(=O)N[C@@H](CCc3cc(F)c(C(F)(F)F)c(F)c3)C(=O)N2C1 [PP1291] | A (a compound having 10 or more and less than 20 is denoted as A) | 16.7 nM | A (a compound having 10 or more and less than 20 is denoted as A)
CCO[C@@H]1C[C@H]2C(=O)NC3(CCC3)C(=O)N(C)[C@@H](C(CC)CC)C(=O)N(C)[C@H](C)CC(=O)N(C)[C@@H](CC3CC3)C(=O)N[C@@H]([C@@H](C)CC)C(=O)N(C)CC(=O)N(C)[C@H]3C/C=C\CCN(C3=O)[C@@H](Cc3ccc(F)cc3C)C(=O)N(C)CC(=O)N[C@@H](CCc3cc(F)c(C(F)(F)F)c(F)c3)C(=O)N2C1 [PP1520] | A (a compound having 10 or more and less than 20 is denoted as A) | 575 nM | A (a compound having 10 or more and less than 20 is denoted as A)
CCO[C@@H]1C[C@H]2C(=O)NC3(CCC3)C(=O)N(C)[C@@H](C3CCCC3)C(=O)N(C)[C@H](C(=O)N3CCCCC3)CC(=O)N(C)[C@@H](C)C(=O)N[C@@H]([C@@H](C)CC)C(=O)N(C)CC(=O)N(C)[C@H]3C/C=C\CCN(C3=O)[C@@H](Cc3ccc(C(F)(F)F)cc3)C(=O)N(C)CC(=O)N[C@@H](CCc3cc(F)c(C(F)(F)F)c(F)c3)C(=O)N2C1 [PP1292] | A (a compound having 10 or more and less than 20 is denoted as A) | 24.6 nM | A (a compound having 10 or more and less than 20 is denoted as A)
CCO[C@@H]1C[C@H]2C(=O)NC3(CCC3)C(=O)N(C)[C@@H](C3CCCC3)C(=O)N(C)[C@@H](C(=O)N(C)C)CC(=O)N(C)[C@@H](CC3CCCC3)C(=O)N[C@@H]([C@@H](C)CC)C(=O)N(C)CC(=O)N(C)[C@H]3C/C=C\CCN(C3=O)[C@@H](Cc3ccc(C(F)(F)F)cc3)C(=O)N(C)CC(=O)N[C@@H](CCc3cc(F)c(C(F)(F)F)c(F)c3)C(=O)N2C1 [PP1235] | C (A compound having a KD ratio of 0.1 or more and less than 3 is denoted as C) | 386 nM | B (a compound having 3 or more and less than 10 is denoted as B)
